From patent publication US20250017888A1, “COMPOUNDS FOR TREATING DISEASES ASSOCIATED WITH HYALURONAN OVERPRODUCTION” (THE ROYAL VETERINARY COLLEGE, priority 2021, published 2025)

Assays:
Str/ort mice [1] = assay: Histology and grading of articular cartilage lesions in Str/ort mice; format: in vivo, mouse
Procedure: At 10-13 weeks of age, 21 male Str/ort mice (n=7/group) were assigned randomly to vehicle, hylin-betaine and xantho-betaine groups and were treated intraperitoneally 18 weeks with either vehicle (5% DMSO in 95% peanut oil), 50 mg/kg compound of Example 1 (“hylin-betaine”) in 5% DMSO and 95% peanut oil or 50 mg/kg compound of Example 2 (“xantho-betaine”) in 5% DMSO and 95% peanut oil. Dissected right knees were fixed in neutral buffered formalin, decalcified (Immunocal, Quartett, Berlin), wax-embedded and 6 μm coronal sections cut. Multiple sections (five/slide) from 120 μm intervals across the whole joint were stained with Tollidine blue (0.1% in 0.1 M acetate buffer, pH 5.6) and AC lesion severity graded. Sections from right vehicle, hylin-betaine and xantho-betaine treated Str/ort joints were stained with Safranin O. Sections were dewaxed, and AC lesion severity was scored in Str/ort mice by the methods of Chambers et al., (Chambers et al Expression of collagen and aggrecan genes in normal and osteoarthritic murine knee joints. Osteoarthritis and cartilage/OARS, Osteoarthritis Research Society. 2002; 10(1):51-61) consistent with an internationally-recognized system. Briefly, grade 0: normal; grade 1: rough surface or superficial zone lesions; grade 2: lesion down to the intermediate zone; grade 3: lesions down to tidemark or loss of AC; grades 4 and 5: AC loss across between 20% and 50% or 50-80% of condylar surface; grade 6: loss with subchondral bone exposure. Multiple slides (˜10), each containing five 6 μm sections sampled at 120 μm intervals spanning each entire joint were graded. Grading in each joint compartment (lateral/medial, tibia/femur) allowed for a maximum (most severe) grade to be assigned in each section, and used to produce an overall ‘average’ maximum grade in each group of mice, for the entire joint and for each compartment. In addition, a mean score was produced for each joint and for each compartment and these similarly used to produce an overall ‘average’ mean grade in each group of mice. Mean grades provide a measure of the ‘extent’ of AC lesion (representing relative volume) in each joint/compartment.

chondrosarcoma cells = assay: Uptake of flavonoids into chondrosarcoma cells by intracellular fluorescence; format: cell-based; conditions: concentration dependence, FIG. 2A
Procedure: Confluent monolayers of chondrosarcoma cells on 96 well microtiter plates were incubated with 100 μM solutions of flavonoids in serum-free Quantum medium. Changes in fluorescence were monitored from the bottom of the wells at excitation and emission wavelengths of 340 nm and 450 nm for xanthohumol and at 440 nm and 530 nm for quercetin, respectively.
Flavonoids are weakly fluorescent in aqueous buffer, but greatly enhance the fluorescence in the presence of proteins (Sengupta, B. and Sengupta, P. K., Biochem. Biophys. Res. Commun., 2002, 299, 400-403). This property was used to follow the uptake of quercetin and xanthohumol into chondrosarcoma cells.

[2] = test system: bovine cartilage explants; assay: Proteoglycan loss from interleukin activated bovine cartilage explants; format: cell-based
Procedure: Cartilage explants were weighed (average wet weight: 20 mg) incubated in the absence and presence of IL-1 (2 ng/ml) and the inhibitors at various concentrations for 5 days. The tissues were extracted with 1.5 ml of a solution of 4 M guanidinium hydrochloride, 0.1 M ε-aminohexanoid acid, 5 mM benzamidine, 10 mM N-ethylmaleinimide, 0.5 mM phenylmethylsulfonyl fluoride for 3 days at 4° C. The solution was centrifuged for 5 min at 10.000 g and the proteoglycans were determined in the supernatant by the alcian blue method as described (Bjornsson, S., Anal. Biochem., 1993, 210, 282-291).
Bovine cartilage explants were incubated in the absence and presence of interleukin for stimulation of osteoarthritic reactions and the indicated concentrations of the xanthohumol-betaine (FIG. 6A), xanthohumol-prothiazole (FIG. 6B), quercetin-prothiazole (FIG. 6C), quercetin (FIG. 6D) and xanthohumol (FIG. 6E) for 5 days. The cartilage explants were weighed and the proteoglycan concentrations were determined in the cartilage explants (solid bars) and culture supernatants (open bars).

[3] = test system: hyaluronan export from chondrosarcoma cells; assay: Inhibition of hyaluronan export / production in chondrosarcoma cells; format: cell-based
Procedure: (§1) The hyaluronan synthase activity (Prehm, P. and Schumacher, U., Biochem. Pharmacol. 2004, 68, 1401-1410), the cytotoxicity of the drugs (O'Brien, J. et al., Eur. J. Biochem. 2000, 267, 5421-5426), proteoglycan synthesis rate, hyaluronan (Prehm, P. J. Rheumatol., 2005, 32, 690-696) and proteoglycan (Bjornsson, S. Anal. Biochem. 1993, 210, 282-291) were determined as described. The effect of the prenylflavonoids on the MRP5 export rate was measured with fluorescein diacetate as described (Schulz, T., Schumacher, U., and Prehm, P., J Biol. Chem., 2007, 282, 20999-21004). The determination of the IC50 values on the phosphodiesterase 5 was performed according to the instructions of BPS Bioscience. The culture of bovine chondrocytes in alginate beads and of explants of bovine cartilage was described previously (Deiters, B. and Prehm, P. Arthritis Res. Ther., 2008, 10, R8; Prehm, P. J. Rheumatol. 2005, 32, 690-696). Osteoarthritic reactions were induced in chondrocytes growing in alginate beads by incubation with medium containing 10 ng/ml of II-17 for 6 days, and in cartilage explants with 10 ng/ml of II-17 and 5 ng/ml of II-1α. The supernatants were withdrawn and stored at −20° C. for later analysis. The explants were weighed and extracted with 1 ml of 4 M guanidinium-HCl for 72 hours at 4° C. The proteoglycan concentrations were determined in the extracts.
Chondrosarcoma cells were plated on a 96 well microtiter plate and in the presence of increasing flavonoid concentrations. After 2 days the concentration of hyaluronan was determined in the culture supernatant.

[4] = test system: chondrosarcoma cells (SW1353); assay: Alamar blue staining of chondrosarcoma; format: cell-based; conditions: Homo sapiens
Procedure: as §1
Chondrosarcoma cells (SW1353 from the American Type Culture Collection) were grown in Dulbecco's medium supplemented with streptomycin/penicillin (100 units of each/ml), 10% foetal calf serum or in serum free Quantum medium supplemented with streptomycin/penicillin (100 units of each/ml), kanamycin (100 units/ml).

Str/ort mice [5] = assay: Micro-CT of tibial trabecular and cortical bone in Str/ort mice; format: in vivo, mouse; conditions: 10-90% of total tibial length, vs vehicle

**Q.** For `COc1cc(O)c(CC=C(C)C)c(O)c1C(=O)/C=C/c1ccc(OC(=O)C[N+](C)(C)C)cc1.[Cl-]` [Xantho-betaine, (E)-2-(4-(3-(2,4-dihydroxy-6-methoxy-3-(3-methylbut-2-en-1-yl)phenyl)-3-oxoprop-1-en-1-yl)phenoxy)-N,N,N-trimethyl-2-oxoethanaminium chloride], which “effect on articular cartilage lesions / development of OA (overall)” value (Str/ort mice [1]; 50 mg/kg intraperitoneally, 18 weeks, vs vehicle) is on record?
**A.** no such protection

**Q.** What about the “maximum OA score” value (Str/ort mice [1]; vs vehicle treated Str/ort mice) of the same compound?
**A.** not found to be statistically significant

**Q.** What about the “uptake into chondrosarcoma cells (intracellular fluorescence)” value (chondrosarcoma cells) of the same compound?
**A.** taken up in a concentration dependent manner

**Q.** And the IC50 ([2]; Bos taurus, read-out: IC50 Inhibition of proteoglycan loss)?
**A.** 0.3 µM

**Q.** And the “inhibition of proteoglycan loss (protective effect)” value ([2]; interleukin stimulated, 5 days)?
**A.** similarly effective

**Q.** And the IC50 [3]?
**A.** 18 µM

**Q.** And the “inhibition of hyaluronan export” value ([3]; culture supernatant after 2 days, comparison with parent compound, particularly below 3 μM)?
**A.** slightly less effective than xanthohumol

**Q.** And the IC50 [4]?
**A.** 275 µM

**Q.** What about the “effect on cortical bone (overall)” value (Str/ort mice [5]) of the same compound?
**A.** significantly alter
